# Key:
# [1] = tested on: Abutilon theophrasti; assay: Rate of penetration measured by Fluorescence Index enhancement (PS II inhibitor Na Bentazone into leaf); type: in vivo; design: scale not given here; conditions: Na B + E + S: 0.64% w/w Na Bentazone, 0.1% emulsifier, 0.9% solvent in CIPAC D water; two 5 μl droplets on leaf, 1 h
# Excerpt: PS II inhibitors effectively block the chlorophyll photosynthetic pathways within the leaf, resulting in enhanced fluorescence from the non-adsorbed incident light. The resulting emitted light can be measured at selected time intervals, enabling the determination of the rate of uptake of the PS II inhibitor and thus penetration effect of the selected adjuvant.
# The following experiments were on the broadleaf weed Abutilon theophrasti (EPPO code ABUTH) at a Biologische Bundesanstalt, Bundessortenamt und Chemische Industrie (BBCH) growth stage 13 to 14.
# The penetration experiments are conducted via the deposition of two droplets (5 μl) of the herbicide/emulsifier/lactone-based solvent formulation onto the leaf surface. The droplets are allowed to stand on the leaf surface for 1 h, after which a fluorescence image of the exposed leaf surface is recorded using the PAM chlorophyll fluorescence imaging system (Imaging PAM, Heinz-Walz GmbH, Germany). The resulting “Total Fluorescence” and “Fluorescence Area” are then quantified via the analysis of the recorded fluorescence image using image analysis software. This enables the calculation of the “Fluorescence Index”:
# The “Fluorescence Index” is a therefore a direct measurement of the penetration of the active ingredient into the plant leaf and can thus be used to measure enhanced penetration via the use of selected adjuvants. Identical experiments are conducted on 7 further leaves using the same formulation to account for biological variability and experimental error.
# [2] = solvent in water, visual assessment of undissolved solvent
# Method: Herein, various amounts of solvent and water were mixed with vigorous shaking in a glass-stoppered graduated cylinder or separating funnel, followed by standing for at least 30 min to enable separation. […] This method can be repeated with various amounts of solvent and water to enable the determination of the water-solubility of the solvent.
# [3] = tested on: Soya plants; assay: Phytotoxicity determination on Soya; type: in vivo; conditions: 200 L/ha of 1% w/w emulsion (EC 90% w/w solvent, 10% w/w emulsifier); after 14 days; visual scale 0% to 100%
# Method: Soya plants grown under standard greenhouse conditions in the growth stage 13 were treated with aqueous emulsions in a spray cabin. The resulting plant spray dosage represented an application rate of 200 L/ha of 1% w/w emulsion, corresponding to the application of 2 L/ha of the emulsifiable concentrate. […] The experimental period lasted 14 days, during which time the Soya plants were given optimum watering, nutrients, and light.
# An assessment of 1 to 10% phytotoxicity is the limit of acceptable plant damage by farmers.
SMILES,Fluorescence Index [1],Water solubility [2] [% w/w],phytotoxicity [3] [%]
CCCCCC1CCCC(=O)O1 (centres unmarked) [Delta-decalactone],9.66,0.4,–
CCCCCCCCC1CCC(=O)O1 (centres unmarked) [Gamma-dodecalactone],–,<0.02,–
CCCCC1CCC(=O)O1 (centres unmarked) [Gamma-octalactone],8.80,0.8,–
CCCCCC1CCC(=O)O1 (centres unmarked) [Gamma-nonalactone],16.44,0.2,0
"CCCC(C)C1OC(=O)CC1C (stereo not drawn) [Beta, delta-dimethyl- gamma-octalactone, Beta,delta-dimethyl-gamma-octalactone]",–,≤0.2,–
CC1CCC(=O)O1 (centres unmarked) [Gamma-valerolactone],4.85,100,–
"CCCC(C)C1CCC(=O)O1 (centres unmarked) [Delta-methyl-gamma- octalactone, Delta-methyl-gamma-octalactone]",–,≤0.2,–
CCCCCCCCC1CCCC(=O)O1 (centres unmarked) [Delta-tridecalactone],–,<0.1,–
CCCCCCCC1CCC(=O)O1 (centres unmarked) [Gamma-undecalactone],11.67,–,–
CCC1CCC(=O)O1 (centres unmarked) [Gamma-hexalactone],6.11,8,–
CCCCC1OC(=O)CC1C (stereo not drawn) [Beta-methyl-gamma-octalactone],–,≤0.2,–
CCCCCCCC1CCCC(=O)O1 (centres unmarked) [Delta-dodecalactone],15.21,0.07,–
"CCCCCCCCCC(=O)N(C)C [Dimethyl decanamide, reference compound]",–,–,50
CCCCC1CCCC(=O)O1 (centres unmarked) [Delta-nonalactone],–,1.2,–
CCCCCCC1CCC(=O)O1 (centres unmarked) [Gamma-decalactone],14.13,0.1,–

# From patent US20260101887A1, “AN EMULSIFIABLE CONCENTRATE HAVING A LACTONE-BASED SOLVENT SYSTEM” (priority 2022, published 2026)
